# Patent EP4813463A2, “TYK2 INHIBITORS AND COMPOSITIONS AND METHODS THEREOF” (Lynk Pharmaceuticals Co. Ltd., priority 2023, dated 2024)
# Read-outs that look alike come from different tables or passages of the source.
# Experiments:
# [1] = test system: Ba/F3-FL-TYK2-P760L cells; test: Anti-proliferative assay in engineered Ba/F3 cells (Cell-Titer Glo, 72 h); type: cell-based; conditions: 72 h compound treatment, concentration that causes 50% growth inhibition, read-out: Baf3-FL-T2P760L
# How it was run: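 IC50 from luminescent ATP viability after 72 h compound exposure (37 °C, 5% CO2), % inhibition normalised to DMSO-treated cells minus medium blank. IL-3-free Ba/F3-FL-TYK2-P760L (Tel-JAK fusion) cells in 10% FBS RPMI-1640 received 9 three-fold doses, top 20 µM, 0.1% DMSO.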
# IFNa pSTAT1 [2] = test: Phosphorylation of STAT1 inhibition in HMC3 cells with HTRF assay; type: cell-based; conditions: Homo sapiens, HMC3 microglia cells, 50ng/mL hINFα 1 hour, read-out: HTRF_HMC3 IC 50 (IFNa pSTAT1)
# Experimental: Seeding HMC3 cells into 96-well plate and incubate overnight. Pre-stimulation with recombinant human IFNα (Sino biological, H08Y), treat cells with compound with different concentration for 1hr. After compound treatment, stimulate cells with 50ng/mL hINFα for another 1 hour (for CCF-STTG1 cells IFNα induction time is 30 mins). After compound treatment and cytokine stimulation, dump old medium and lyse cells with supplemented lysis buffer provided by the HTRF kit (Revvity, 63ADK026PEG) for 30 min at room temperature under shaking. After homogenization by pipetting up and down, transfer 16 µL of cell lysate from the 96-well cell-culture plate to a small volume white 384-well plate, and then add 4 µL of pre-mixed two ready-to-use antibody working solution into each wells. Cover the plate with a plate sealer and incubate it overnight at room temperature. Read the fluorescence emission at two different wavelengths (665nm and 620nm) on microplate reader (Molecular Device, SpectraMax i3X). Collect data and analyzed with GraphPad Prism.
# IFNa pSTAT1 [3] = test: Phosphorylation of STAT1 inhibition in HMC3 cells by Jess; type: cell-based; conditions: Homo sapiens; HMC3 microglia cells, 50ng/mL hINFα 1 hour, Jess western; read-out: Jess_HMC3 IC50 (IFNa pSTAT1)
# Experimental: Seeding HMC3 cells into 12-well plate and incubate overnight. Pre-stimulation with recombinant human IFNα (Sino biological, H08Y), treat cells with compound with different concentration for 1hr. After compound treatment, stimulate HMC3 cells with 50ng/mL hINFα for another 1 hour (for CCF-STTG1 cells IFNα induction time is 30 mins). And then wash cells with DPBS once gently and lyse cells with pre-cooled RIPA buffer (Sigma, R0278-500ML) for 30min on ice to harvest cells. Centrifuge cell lysate for 20 mins at 12000rpm with freezer centrifuge (Thermo Scientific, Heraeus Fresco 21) to extract protein. Prepare samples with Jess Simple Wes kit (SM-WO04) and then run western blot on Jess simple western system (Protein simple, JS-4631). Collect data and analyzed with GraphPad Prism.
# JAK1-JH2 domain = target: T1, JAK1-JH2 domain (Homo sapiens, UniProt P23458); test: Binding activity test for JH2 domain of JAK1 (Tb-antibody/tracer FRET); conditions: JH2 domain enzyme; 60 min at 25°C, then 4°C overnight; read-out: JAK1 JH2 Binding IC50
# T1 construct: JAK1-JH2 domain or TYK2-JH2 domain enzyme in assay buffer
# How it was run: (§1)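 IC50 values (nM) come from TR-FRET readings taken after a 25°C incubation followed by overnight at 4°C. Each well held JH2 domain protein, Tb-antibody, tracer and test compound titrated in 11 threefold steps, with DMSO high and low controls.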
# TYK2-JH2 domain = target: T2, TYK2-JH2 domain (Homo sapiens, UniProt P29597); test: Binding activity test for JH2 domain of TYK2 (Tb-antibody/tracer FRET); conditions: for IC50: JH2 domain enzyme, 60 min at 25°C, then 4°C overnight, read-out: TYK2 JH2 Binding IC50; for JAK1/TYK2 selectivity: ratio of JAK1 JH2 to TYK2 JH2 binding IC50
# T2 construct: JAK1-JH2 domain or TYK2-JH2 domain enzyme in assay buffer
# How it was run: as §1
# [4] = Brain pharmacokinetic studies in rats; type: in vivo, Sprague-Dawley rats
# Experimental: Pharmacokinetic profiles of test articles were evaluated in fasted Sprague-Dawley rats. Different kinds of formulations were designed to ensure test articles fully dissolved and wouldn't precipitate in 1:10 SGF or FaSSIF dilution. Typically, Rats were dosed with 3 mg/kg and 5 mg/kg by intravenous injection and oral gavage, respectively. The animal was restrained manually at the designated time points, approximately 150 µL of blood sample was collected via jugular vein for serial bleeding into K2EDTA tubes. The blood samples were maintained in wet ice first and centrifuged to obtain plasma (2000g, 4°C, 5 min) within 30 minutes post sampling. Anesthetizing the rat with the Isoflurane vaporizer to 2%~3% and place its back on the operation table. Spread the animal limbs and pin the limbs on the operation table. Make a cut along the sternum about 4cm long, low enough to expose the sternum's end. Expose the heart and use a 25-gauge needle connected with a 20 mL syringe filled with 20 mL of cold saline to pierce the left ventricle. Maintain the placement of the needle, and slowly push the syringe plunger to wash the brain with saline. The perfusion will be finished within about 2 min and then take the brain out of the body carefully without damaging the tissue. Dry the tissue on filtrate paper, which should be placed on ice, and then weigh the brain tissue and store at -70 °C and analyzed by LC/MS/MS for quantification. PK parameter values, including, but not necessarily limited to, the maximum plasma concentrations (Cmax), and the area under the plasma concentration vs. time curve (AUC) from time zero to 24-hour (AUC0-24h) were determined using WinNonlin program. Table 13. Systemic Pharmacokinetic Parameters in Sprague-Dawley Rats
# pSTAT1 = test: Phosphorylation inhibition of STAT in human whole blood (IFN-alpha stimulated, flow cytometry); type: cell-based; conditions: T-cell, 20 min, IFN-alpha stimulation 20 mins, CD3 T cells, read-out: pSTAT1 inhibition in hWB (IC50)
# How it was run: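 Fresh human whole blood stimulated 20 min with human universal type I IFN-alpha, then fixed, permeabilised and stained for CD3 and pSTAT1 (Y701). pSTAT1 in T cells read by flow cytometry; IC50 from 4-parameter logistic fit.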
# T2 sequence (P29597 589-875 limits assumed): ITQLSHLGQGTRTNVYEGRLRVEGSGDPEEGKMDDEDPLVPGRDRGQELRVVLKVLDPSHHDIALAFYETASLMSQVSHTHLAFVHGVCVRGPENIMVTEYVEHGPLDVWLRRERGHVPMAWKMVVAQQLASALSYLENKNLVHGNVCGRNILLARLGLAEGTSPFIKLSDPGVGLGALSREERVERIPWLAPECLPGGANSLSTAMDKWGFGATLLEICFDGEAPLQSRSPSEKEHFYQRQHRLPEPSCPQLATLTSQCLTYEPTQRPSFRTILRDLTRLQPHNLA
# T1 sequence (P23458 583-855 limits assumed): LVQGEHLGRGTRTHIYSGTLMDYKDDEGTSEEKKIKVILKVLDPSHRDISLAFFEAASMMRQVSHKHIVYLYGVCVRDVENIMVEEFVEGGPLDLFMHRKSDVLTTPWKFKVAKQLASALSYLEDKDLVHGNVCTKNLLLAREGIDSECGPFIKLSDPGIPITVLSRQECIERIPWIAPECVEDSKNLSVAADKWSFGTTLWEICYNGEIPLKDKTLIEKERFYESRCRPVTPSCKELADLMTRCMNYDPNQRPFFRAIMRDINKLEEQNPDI
SMILES,"IC50 ([1]; Mus musculus, BaF3, 72 h)",IC50 (IFNa pSTAT1 [2]),IC50 (IFNa pSTAT1 [3]),IC50 (JAK1-JH2 domain),IC50 (TYK2-JH2 domain),JAK1/TYK2 selectivity (TYK2-JH2 domain),IC50 [1],"half-life ([4]; Sprague-Dawley, rat, brain, rats, iv, 2 mg/kg, solution)","Kp ([4]; Sprague-Dawley, rat, brain, rats, iv, 2 mg/kg, solution, read-out: Brain AUC/Systemic AUC)","half-life ([4]; Sprague-Dawley, rat, systemic (plasma), rats, iv, 2 mg/kg, solution)","AUC ([4]; Sprague-Dawley, rat, systemic (plasma), rats, iv, 2 mg/kg, solution, read-out: AUC)","AUC ([4]; brain, rats, iv, 2 mg/kg, solution)",brain exposure in Rats ([4]; result in words),IC50 (pSTAT1)
"COC(=O)c1cnc(NC(=O)C2CC2)cc1Nc1nn(C)c2ccc(C(OC)C(F)F)c(OC)c12 (stereo not shown) [Example 68, Methyl 6-(cyclopropanecarboxamido)-4-((5-(2,2-difluoro-1-methoxyethyl)-4-methoxy-1-methyl-1H-indazol-3-yl)amino)nicotinate]",3.6 nM,< 0.061 nM,3.17 nM,16.3 nM,0.14 nM,116.36,–,–,–,–,–,–,–,–
"CCC(F)(F)c1cnc(NC(=O)C2CC2)cc1Nc1nn(C)c2ccc(C(O)C(F)(F)F)c(OC)c12 (single isomer, unassigned) [Example 193A, (S*)-N-(5-(1,1-Difluoropropyl)-4-((4-methoxy-1-methyl-5-(2,2,2-trifluoro-1-hydroxyethyl)-1H-indazol-3-yl)amino)pyridin-2-yl)cyclopropanecarboxamide]",–,0.821 nM,4.28 nM,–,0.417 nM,–,0.395 nM,–,–,–,–,–,–,–
"[2H]C([2H])([2H])CC(=O)c1cnc(NC(=O)C2CC2)cc1Nc1nn(C)c2ccc([C@H](O)C(F)(F)F)c(OC)c12 [Example 54A, (S)-N-(4-((4-methoxy-1-methyl-5-(2,2,2-trifluoro-1-hydroxyethyl)-1H-indazol-3-yl)amino)-5-(propanoyl-3,3,3-d3)pyridin-2-yl)cyclopropanecarboxamide]",0.577 nM,< 0.061 nM,–,3.82 nM,0.118 nM,32.37,–,1.64 h,0.18,1.7 h,1060 ng·h/mL,188 ng·h/g,good brain exposure,10.8 nM
